“And” between values parts separate entries of the source, which are not always exact repeats. Equal entries are not always repeated. Structures can show the parent of a compound that is named as a salt.
Tests used:
GluN1/GluN2B receptors = molecular target: T1, GluN1/GluN2B receptors (Rattus norvegicus, UniProt P35439+Q00960); test: Whole-cell patch-clamp of GluN1/GluN2B receptor responses in transfected HEK293 cells; type: cell-based
T1 construct: expressed in transfected cells; host or cells: HEK293
Excerpt: Human embryonic kidney (HEK293) cells were transfected with expression vectors containing: GluN1–1a (GenBank accession number U08261)[52]; GluN2B (GenBank accession number M91562); GluN1-4a(F484A), (generous gift from Dr. J. J. Woodward)[53] (Smothers & Woodward, 2009); GluN3A (generous gift from Dr. S. A. Lipton)[54] (GenBank accession number NM_138546); GluN1ΔN with deleted 354 amino acids in the NTD (32 to 386); GluN1ΔC with an introduced stop codon in 838 of the CTD GluN2BΔN) with deleted 354 amino acids in the NTD (32 to 386); GluN2BΔC with an introduced stop codon in 844 of the CTD[55]; GluR0 (GenBank accession number Synechocystis PCC 6803) (generous gift from Dr. M. L. Mayer)[18]; and green fluorescent protein (GFP) (pQBI 25, Takara, Tokyo, Japan) genes, as described previously. The Quick-Change site-directed mutagenesis kit (Agilent Technologies, Santa Clara, CA, USA) was used to generate specific point mutations in the M1/M3 region according to the manufacturer’s instructions using manually designed primers purchased from Sigma. Modified DNA plasmids were transformed into competent XL10-Gold E.coli cells, positive clones were selected, and isolated DNA was sequenced. […] All mutations were verified by DNA sequencing (Macrogen, Seoul, Korea or SeQme, Dobris, Czech Republic). The amino acids are numbered according to the full-length protein, including the signal peptide, with the initiating methionine as 1.
Experiments were performed 24–48 hrs after transfection on cells transfected with GluN1/GluN2B/GFP plasmids. Whole-cell voltage-clamp recordings from HEK293 cells were made with a patch-clamp amplifier (Axopatch 200B; Axon Instruments, Inc., Foster City, CA) after a capacitance and series resistance (<10 MΩ) compensation of 80–90%.
Patch pipettes (3–5 MΩ) were filled with a solution containing (in mM): 120 gluconic acid, 15 CsCl, 10 BAPTA, 10 HEPES, 3 MgCl2, 1 CaCl2, and 2 ATP-Mg salt (pH-adjusted to 7.2 with CsOH). When GluR0 receptor responses were studied, intracellular solution contained (in mM): 120 gluconic acid, 15 KCl, 10 BAPTA, 10 HEPES, 3 MgCl2, 1 CaCl2, and 2 ATP-Mg salt (pH-adjusted to 7.2 with KOH). Extracellular solution (ECS) contained the following (in mM): 160 NaCl, 2.5 KCl, 10 HEPES, 10 glucose, 0.2 EDTA, and 0.7 CaCl2 (pH-adjusted to 7.3 with NaOH). Glycine (10 μM), an NMDAR co-agonist, was present in the control and test solutions. All (PA-S and PA-A) solutions were made from freshly prepared 20 mM PA-S and 5 mM PA-A stock in dimethyl sulfoxide (DMSO). The final dilution to ECS was made at 50 °C and followed by 1 min sonication (SONOREX DIGITEC DT 100/H, BADELIN electronic, Berlin, Germany). The same concentration of DMSO was added to all extracellular solutions. Drug applications were made with a microprocessor-controlled multibarrel fast-perfusion system. Changes in the glutamate-induced current in HEK293 cells transfected by GluN1/GluN2B subunits were used to estimate the rate of solution exchange around the cell. Standard ECS was switched to the ECS diluted by water (50%) during glutamate application. The osmolarity was adjusted by sucrose to match the standard ECS. Glutamate (1 mM), glycine (10 μM) and pH was maintained constant in both solutions. The solution exchange rate was estimated to be τ = 4.3 ± 0.3 ms (n = 6) for lifted cells and τ = 12.0 ± 0.9 ms (n = 6) for the attached cells.
Experiments were performed at room temperature (21–25 °C). Data were collected (low-pass filtered at 2 kHz and sampled at 10 kHz) and analyzed using pClamp 10 (Molecular Devices). Unless otherwise mentioned, error bars represent SEM; statistical comparison of groups was performed using Student’s t-test (p < 0.05 was used to determine the significance).
(§1) The IC50 was determined from a single dose of a steroid using the formula [drawing 1] where I is the relative degree of inhibition and [steroid] is the steroid concentration used. […]

[1] = system: non-transfected HEK293 cells; test: Membrane capacitance measurement of steroid association with and exit from the membrane; type: cell-based, Human
Excerpt: Membrane capacitance was estimated by examining the integrated capacitive current (sampled at 30 kHz at 10 kHz filter cutoff frequency) evoked by depolarizing or hyperpolarizing voltage pulses from −60 mV to +30 mV for 3 ms delivered at 200 Hz.

GluN1ΔN/GluN2BΔN = molecular target: T2, GluN1ΔN/GluN2BΔN (Rattus norvegicus, UniProt P35439+Q00960, DEL32-386); test: Whole-cell patch-clamp of N-terminal truncated NMDARs in HEK293 cells; type: cell-based; details: 1 mM glutamate, PA-S 50 µM
T2 construct: expressed in transfected cells; host or cells: HEK293
Excerpt: Human embryonic kidney (HEK293) cells were transfected with expression vectors containing: GluN1–1a (GenBank accession number U08261)[52]; GluN2B (GenBank accession number M91562); GluN1-4a(F484A), (generous gift from Dr. J. J. Woodward)[53] (Smothers & Woodward, 2009); GluN3A (generous gift from Dr. S. A. Lipton)[54] (GenBank accession number NM_138546); GluN1ΔN with deleted 354 amino acids in the NTD (32 to 386); GluN1ΔC with an introduced stop codon in 838 of the CTD GluN2BΔN) with deleted 354 amino acids in the NTD (32 to 386); GluN2BΔC with an introduced stop codon in 844 of the CTD[55]; GluR0 (GenBank accession number Synechocystis PCC 6803) (generous gift from Dr. M. L. Mayer)[18]; and green fluorescent protein (GFP) (pQBI 25, Takara, Tokyo, Japan) genes, as described previously. The Quick-Change site-directed mutagenesis kit (Agilent Technologies, Santa Clara, CA, USA) was used to generate specific point mutations in the M1/M3 region according to the manufacturer’s instructions using manually designed primers purchased from Sigma. Modified DNA plasmids were transformed into competent XL10-Gold E.coli cells, positive clones were selected, and isolated DNA was sequenced. […]
as §1

[2] = 150 μM PA-S co-applied with 1 mM glutamate, 10 μM glycine, attached HEK293 cells
[3] = lifted HEK293 cells, 150 μM PA-S co-application with glutamate
[4] = lifted HEK293 cells, 150 μM PA-S wash

T1 sequence (Q00960 27-1482, other chains not shown): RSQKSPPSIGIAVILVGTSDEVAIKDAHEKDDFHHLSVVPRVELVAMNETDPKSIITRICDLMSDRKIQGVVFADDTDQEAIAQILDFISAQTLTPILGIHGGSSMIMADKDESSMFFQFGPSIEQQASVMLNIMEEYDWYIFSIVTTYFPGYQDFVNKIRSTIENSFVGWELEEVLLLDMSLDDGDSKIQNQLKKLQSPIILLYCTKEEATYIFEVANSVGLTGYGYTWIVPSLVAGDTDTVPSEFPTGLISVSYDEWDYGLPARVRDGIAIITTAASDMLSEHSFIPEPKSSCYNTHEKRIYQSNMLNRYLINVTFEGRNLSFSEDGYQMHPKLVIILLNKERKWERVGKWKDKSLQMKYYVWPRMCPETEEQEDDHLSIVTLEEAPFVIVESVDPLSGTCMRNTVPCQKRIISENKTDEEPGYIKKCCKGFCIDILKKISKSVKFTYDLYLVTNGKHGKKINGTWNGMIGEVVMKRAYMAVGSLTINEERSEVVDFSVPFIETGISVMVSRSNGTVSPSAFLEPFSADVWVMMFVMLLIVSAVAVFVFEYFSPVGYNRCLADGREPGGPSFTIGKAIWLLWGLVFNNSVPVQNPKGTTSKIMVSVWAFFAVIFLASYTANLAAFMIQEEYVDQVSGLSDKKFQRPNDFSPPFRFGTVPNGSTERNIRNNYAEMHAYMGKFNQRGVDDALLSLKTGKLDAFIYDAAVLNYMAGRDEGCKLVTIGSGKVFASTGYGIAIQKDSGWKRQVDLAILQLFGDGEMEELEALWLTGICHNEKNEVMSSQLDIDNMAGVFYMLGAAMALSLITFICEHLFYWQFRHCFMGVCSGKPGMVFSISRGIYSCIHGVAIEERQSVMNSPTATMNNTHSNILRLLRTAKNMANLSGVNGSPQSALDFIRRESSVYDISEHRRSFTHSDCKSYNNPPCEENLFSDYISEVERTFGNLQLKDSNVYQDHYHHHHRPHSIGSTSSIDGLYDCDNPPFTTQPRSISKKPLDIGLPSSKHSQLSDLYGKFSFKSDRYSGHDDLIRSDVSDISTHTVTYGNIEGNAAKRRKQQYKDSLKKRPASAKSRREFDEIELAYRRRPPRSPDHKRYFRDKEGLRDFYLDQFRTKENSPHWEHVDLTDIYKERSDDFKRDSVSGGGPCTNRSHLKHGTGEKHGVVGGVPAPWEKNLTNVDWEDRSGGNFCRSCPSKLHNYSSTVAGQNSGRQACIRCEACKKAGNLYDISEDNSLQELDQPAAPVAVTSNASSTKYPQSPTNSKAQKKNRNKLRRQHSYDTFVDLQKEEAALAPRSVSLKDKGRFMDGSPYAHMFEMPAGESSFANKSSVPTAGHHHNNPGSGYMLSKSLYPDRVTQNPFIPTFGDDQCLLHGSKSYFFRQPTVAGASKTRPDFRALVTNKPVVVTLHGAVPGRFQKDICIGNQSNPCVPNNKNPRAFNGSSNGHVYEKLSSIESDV

CC(=O)[C@H]1CC[C@H]2[C@@H]3CC[C@@H]4C[C@H](OS(=O)(=O)O)CC[C@]4(C)[C@H]3CC[C@]12C [PA-S, 20-oxo-5β-pregnan-3α-yl sulfate]
onset of response to glycine Af (GluN1/GluN2B receptors): 84 ± 5%
onset of response to glycine τf (GluN1/GluN2B receptors): 29 ± 3 ms
onset of response to glycine τs (GluN1/GluN2B receptors): 280 ± 72 ms
onset of inhibition Af (GluN1/GluN2B receptors; [2]): 75 ± 3%
onset of inhibition τf (GluN1/GluN2B receptors; [2]): 30 ± 2 ms
onset of inhibition τs (GluN1/GluN2B receptors; [2]): 579 ± 92 ms
recovery from inhibition (offset) τs (GluN1/GluN2B receptors; 150 μM PA-S, 1 mM glutamate, 10 μM glycine, attached HEK293 cells): 536 ± 79 ms
intercept of linear fit of mean inhibition versus holding potential (GluN1/GluN2B receptors; PA-S 200 µM, 1 mM glutamate, WT): 85.2
voltage dependence of steroid inhibition (GluN1/GluN2B receptors; WT GluN1/GluN2B): voltage independent
mode of inhibition (GluN1/GluN2B receptors; dependence on receptor activation by agonists): use-dependent
time constant of the slow rate of recovery from inhibition (GluN1/GluN2B receptors; glutamate and steroid co-application for 30 s): 902 ± 201 ms
onset of the response to glutamate application (10–90%) (GluN1/GluN2B receptors; immediately after 30 s PA-S (150 μM) pre-application in the absence of glutamate): 18.4 ± 1.6 ms
onset of inhibition As (GluN1/GluN2B receptors; [3]): 20 ± 4%
onset of inhibition τf (GluN1/GluN2B receptors; [3]): 10.8 ± 2.2 ms
onset of inhibition τs (GluN1/GluN2B receptors; [3]): 480 ± 108 ms
off rate As (GluN1/GluN2B receptors; [4]): 65% and 41 ± 6%
off rate τf (GluN1/GluN2B receptors; [4]): 16 ms and 14.3 ± 1.7 ms
off rate τs (GluN1/GluN2B receptors; [4]): 367 ms and 311 ± 70 ms
fast dissociation time constant from the membrane [1]: ≤ 1 ms
koff (rate of steroid dissociation from the membrane) [1]: ≥ 1000 s⁻¹
capacitance increase during the steroid application ([1]; PA-S 150 μM for 1 s, attached cells): ~ 3%
capacitance return after steroid washout As ([1]; PA-S 150 μM, attached cells): 41 ± 2%
capacitance return after steroid washout τf ([1]; PA-S 150 μM, attached cells): < 5 ms
capacitance return after steroid washout τs ([1]; PA-S 150 μM, attached cells): 222 ± 8 ms and 244 ms
capacitance change after PA-S washout τ ([1]; lifted cells, only fast component resolved): < 5 ms
IC50 (GluN1ΔN/GluN2BΔN): 41 ± 2 µM
